Source: paper PMC5362455, “Molecularly targeted co-delivery of a histone deacetylase inhibitor and paclitaxel by lipid-protein hybrid nanoparticles for synergistic combinational chemotherapy” (Oncotarget, 2017)

How the values were obtained:
[1] = system: HepG2 xenograft tumor masses; test: Histomorphometric and immunohistochemical analysis of tumor masses; format: in vivo, BALB/c nude mice; details: for Tumor cell volumes: H&E, six histological fields; for Immunolabeled cell percentages: CD31 (PECAM-1) / Immunolabeled cell percentages: Caspase-3 / Immunolabeled cell percentages: Ki-67 / Immunolabeled cell percentages: PARP: tumor mass; for Caspase-3-immunolabeled cells: tumor of treated mice
Experimental: Xenografted tumor masses were cut and fixed in 10% neutral buffered formalin, embedded in paraffin, serially sectioned (3–4 μm), and stained with H&E prior to histopathological examinations under a light microscope (Nikon, Tokyo, Japan). The tumor cell volumes and intact tumor cell-occupied regions (%/mm^2 of tumor mass) were calculated using a computer-based automated image analyzer (iSolution FL ver 9.1, IMT i-solution Inc., Quebec, Canada).
The apoptotic markers, caspase-3, PARP, CD31, and Ki67 were investigated immunohistochemically using purified primary antibodies and biotinylated secondary antibodies, with avidin-biotin-peroxidase complex (ABC) and a peroxidase substrate kit (Vector Labs, Burlingame, CA, USA). Briefly, endogenous peroxidase activity was blocked with methanol and 0.3% H2O2 for 30 min, and non-specific immunoglobulin binding was blocked with normal horse serum blocking solution in 10 mM citrate buffer (pH 6.0). Tissue sections were incubated with primary antisera overnight at 4°C in a humidity chamber, and then incubated with biotinylated universal secondary antibodies and ABC reagents for 1 h at room temperature. Finally, sections were reacted with the peroxidase substrate kit for 3 min at room temperature. Cells were counted as immunopositive if they had > 20% immunoreactivity to the apoptotic marker (caspase-3 or PARP). The percentage region occupied by caspase-3- and PARP-positive cells within the tumor mass (%/mm^2 of tumor mass) was measured by an automated image analyzer.

red blood cells (RBC) = test: Hemolytic analysis; details: male, Sprague-Dawley, rat
Experimental: The experimental protocol was approved by
the Institutional Animal Ethical Committee, Yeungnam
Briefly, the rat femoral artery
was cannulated and whole blood samples were withdrawn.
centrifugation at 3500 rpm for 10 min. The degree of
Hemolytic analysis hemolysis was determined by measuring the absorbance
of the supernatant at 540 nm.
Hemolytic toxicity was determined in a male
Sprague-Dawley rat after treatment with different

[2] = system: HepG2 tumor-bearing xenograft mice; test: In vivo antitumor study; parameters: species or system BALB/c nude mice; details: 5 mg/kg i.v., days 1, 4, 7, 10
Experimental: HepG2 cell-bearing xenograft mice models were developed by subcutaneously injecting 1 × 10^7 cells/100 μl into the rear flanks of 5-week-old male BALB/c nude mice (Orient Ltd. Osan, South Korea). After two weeks of initial implantation, animals were randomly divided into six groups (n = 6 per group). Respective formulations were injected at a dose of 100 μg/100 μL in 750 μg carrier by tail vein four times every 3 days. Tumors were measured twice weekly using a digital caliper and the tumor volume (V) was calculated as, V = ((width)^2 x length)/2. The animals were sacrificed after four weeks of treatment and the primary tumor was excised, weighed, and subjected to further analysis.

| SMILES | Tumor cell volumes [1] | Immunolabeled cell percentages: CD31 (PECAM-1) [1] | Immunolabeled cell percentages: Caspase-3 [1] | Immunolabeled cell percentages: Ki-67 [1] | Immunolabeled cell percentages: PARP [1] | Caspase-3-immunolabeled cells [1] | hemolysis at 30 min, 100 µg/mL (red blood cells (RBC); isolated red blood cells (RBC) suspension) | Tumor growth (in words) [2] | hemolysis at 30 min, 100 µg/mL (red blood cells (RBC)) |
| --- | --- | --- | --- | --- | --- | --- | --- | --- | --- |
| O=C(CCCCCCC(=O)Nc1ccccc1)NO [VOR, Vorinostat] | 60.51 ± 10.92 %/mm2 of tumor mass | 29.70 ± 2.52 %/mm2 of tumor mass | 26.31 ± 7.48 %/mm2 of tumor mass | 42.64 ± 4.65 %/mm2 of tumor mass | 27.64 ± 3.22 %/mm2 of tumor mass | 26.31% | ~40% | slightly inhibited tumor growth |  |
| CC(=O)O[C@H]1C(=O)[C@@]2(C)[C@H]([C@H](OC(=O)c3ccccc3)[C@]3(O)C[C@H](OC(=O)[C@H](O)[C@@H](NC(=O)c4ccccc4)c4ccccc4)C(C)=C1C3(C)C)[C@]1(OC(C)=O)CO[C@@H]1C[C@@H]2O [PTX, Paclitaxel] | 53.84 ± 3.18 %/mm2 of tumor mass | 30.54 ± 4.09 %/mm2 of tumor mass | 30.34 ± 5.00 %/mm2 of tumor mass | 44.90 ± 5.31 %/mm2 of tumor mass | 29.59 ± 3.04 %/mm2 of tumor mass | 30.34% |  | slightly inhibited tumor growth | ~25% |
